From patent publication US4552889A, “3-Mercaptomethyl-2-oxo-1-pyrrolidine acetic acids and use for hypertension” (Eli Lilly and Company, priority 1983, dated 1985)

Biological target: T1, Angiotensin Converting Enzyme (Oryctolagus cuniculus, UniProt P12822)
T1 construct: The enzyme was isolated from rabbit lung and purified via calcium phosphate gel; from tissue; host or cells: rabbit lung
T1 sequence (P12822 34-1310): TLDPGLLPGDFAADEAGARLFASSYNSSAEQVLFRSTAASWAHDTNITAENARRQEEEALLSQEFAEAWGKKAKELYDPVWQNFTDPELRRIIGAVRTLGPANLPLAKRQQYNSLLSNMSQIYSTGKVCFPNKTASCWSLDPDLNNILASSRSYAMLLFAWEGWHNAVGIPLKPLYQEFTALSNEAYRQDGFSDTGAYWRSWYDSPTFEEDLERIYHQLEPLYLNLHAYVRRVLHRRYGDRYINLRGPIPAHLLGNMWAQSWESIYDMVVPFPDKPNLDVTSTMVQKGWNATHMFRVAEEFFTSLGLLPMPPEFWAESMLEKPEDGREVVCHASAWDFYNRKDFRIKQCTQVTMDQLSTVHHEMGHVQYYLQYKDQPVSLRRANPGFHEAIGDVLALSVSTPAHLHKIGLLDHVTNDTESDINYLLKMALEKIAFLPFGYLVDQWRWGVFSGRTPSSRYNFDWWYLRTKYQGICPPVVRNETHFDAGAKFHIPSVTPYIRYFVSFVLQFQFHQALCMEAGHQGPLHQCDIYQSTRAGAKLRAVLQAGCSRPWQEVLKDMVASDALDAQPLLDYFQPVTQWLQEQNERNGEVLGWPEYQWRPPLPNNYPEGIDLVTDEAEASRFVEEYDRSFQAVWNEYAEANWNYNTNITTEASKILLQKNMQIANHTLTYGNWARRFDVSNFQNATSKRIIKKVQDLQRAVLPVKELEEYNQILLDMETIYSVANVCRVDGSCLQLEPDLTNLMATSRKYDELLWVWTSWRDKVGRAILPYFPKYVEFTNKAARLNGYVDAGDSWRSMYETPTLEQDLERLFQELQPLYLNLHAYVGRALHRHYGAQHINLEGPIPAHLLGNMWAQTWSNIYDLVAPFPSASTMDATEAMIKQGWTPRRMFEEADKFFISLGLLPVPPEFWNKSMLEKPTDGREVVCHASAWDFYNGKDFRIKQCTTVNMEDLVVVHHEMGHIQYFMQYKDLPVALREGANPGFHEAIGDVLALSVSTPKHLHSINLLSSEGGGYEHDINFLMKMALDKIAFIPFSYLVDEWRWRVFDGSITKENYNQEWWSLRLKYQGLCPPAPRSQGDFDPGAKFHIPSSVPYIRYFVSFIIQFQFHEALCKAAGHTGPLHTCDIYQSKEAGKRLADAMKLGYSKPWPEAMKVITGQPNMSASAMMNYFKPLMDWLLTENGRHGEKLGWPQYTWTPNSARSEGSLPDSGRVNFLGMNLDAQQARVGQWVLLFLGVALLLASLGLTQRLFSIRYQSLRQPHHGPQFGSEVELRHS
Test: Inhibition of Angiotensin Converting Enzyme (fluorometric histidylleucine release from angiotensin I)
Assay type: biochemical
Settings: enzyme from rabbit lung; human angiotensin I substrate; pH 7.5; 30 minutes at 37° C; inhibitor range 10^-4 to 10^-9 M; read-out: Concentration giving 50% Inhibition of Conversion of Angiotensin I to Angiotensin II
Excerpt: The compounds are useful in the treatment of hypertension and congestive heart failure by virtue of their ability to inhibit angiotensin converting enzyme. […] Certain compounds of the present invention were examined as to their ability to inhibit angiotensin converting enzyme in the following test system.
ASSAY OF INHIBITORS OF ANGIOTENSIN CONVERTING ENZYME
The procedure for the assay of angiotensin I converting enzyme activity was essentially that described by Cheung and Cushman, Biochemica et Biophysica Acta, 293, 451-463 (1973). The enzyme was isolated from rabbit lung and purified via calcium phosphate gel, and DEAE-cellulose column chromatography. Human angiotensin I was employed as the substrate. The assay is dependent on the fluorometric measurement of the rate of release of the dipeptide histidylleucine from the substrate by the enzyme when the released dipeptide is reacted with o-phthalicdicarboxaldehyde. A standard curve is prepared with known quantities of histidylleucine.
Incubations were conducted at 37° C. in 13×100 mm. test tubes containing a final volume of 250 μl. The conditions of the assay employed were as follows: 100 μl. of 0.3 mM angiotensin I dissolved in saline-phosphate buffer (30 mM NaCl, 100 mM potassium phosphate, pH 7.5) and 50 μl. of saline-phosphate buffer (or test compound dissolved in the buffer) were allowed to stand at least three minutes at ambient temperature. The enzymic reaction was initiated by adding 100 μl. of enzyme solution containing 25 to 50 μg. protein/ml., determined by the Lowry method. The tubes were incubated for 30 minutes at 37° C. The reaction was terminated by adding 1.45 ml. of 300 mM NaOH followed with 100 μl. of 0.2 percent o-phthalicdicarboxaldehyde in methanol. After ten minutes, 200 μl. of 3M HCl were added. The final volume in the tubes was 2 ml. Fluorometric determinations (365 nm excitation and 500 nm emission) were made after 30 minutes but within 90 minutes after termination of the reaction.
The concentration of the inhibitors were adjusted so that a range of concentrations of 10^-4 to 10^-9 M was obtained in the reaction tubes. Inhibition was measured by the decrease in activity from that of control tubes without inhibitor. Activity was recorded as the molar concentration of inhibitor producing a 50 percent decrease in converting enzyme activity relative to the controls and is summarized in Table I.

IC50 | Compound
1000 nM | C[C@@H](C(=O)O)N1CCC(C)(CS)C1=O (stereo partly drawn) [Example 1, (αS)-3-(mercaptomethyl)-α,3-dimethyl-2-oxo-1-pyrrolidineacetic acid]
2000 nM | CCC1(CS)CCN([C@@H](C)C(=O)O)C1=O (stereo partly drawn) [Example 2, (αS)-3-ethyl-3-(mercaptomethyl)-α-methyl-2-oxo-1-pyrrolidineacetic acid]
5000 nM | C[C@@H](C(=O)O)N1CC[C@](CS)(Cc2ccccc2)C1=O [Example 3, (αS,3R)-3-(mercaptomethyl)-α-methyl-2-oxo-3-benzyl-1-pyrrolidineacetic acid]
> 100000 nM | C[C@@H](C(=O)O)N1CC[C@@](CS)(Cc2ccccc2)C1=O [Example 4, (S,S)-3-(mercaptomethyl)-α-methyl-2-oxo-3-benzyl-1-pyrrolidine-acetic acid]
